From patent US10266495B2, “Phenyl quinolinone derivatives as mutant-isocitrate dehydrogenase inhibitors” (FORMA TM2, Inc., priority 2014, dated 2019)

Key:
[1] = target: IDH1-R132C recombinant protein (Homo sapiens, UniProt O75874, R132C); assay: IDH1-R132C enzymatic assay (NADPH consumption, diaphorase/resazurin readout); type: biochemical; details: read-out: Enzyme IDH1 R132C IC50 Range
Experimental: (§1) Assays were performed in a 384-well black plate. An aliquot of 250 nL of compound was incubated with 10 μL of 30 nM IDH1-R132H or 10 nM IDH1-R132C recombinant protein in assay buffer (50 mM Tris pH=7.5, 150 mM NaCl, 5 mM MgCl2, 0.1% (w/v) Bovine Serum Albumin, and 0.01% Triton X-100) in each well at 25° C. for 15 minutes. After the plate was centrifuged briefly, an aliquot of 10 μL of 2 mM α-ketoglutarate and 20 μM NADPH solution prepared in assay buffer was then added to each well and the reaction was maintained at 25° C. for 45 minutes. An aliquot of 10 μL of diaphorase solution (0.15 U/mL diaphorase and 30 μM Resazurin in assay buffer) was added to each well. […] The IC50 of a given compound was calculated by fitting the dose response curve of inhibition of NADPH consumption at a given concentration with the four parameter logistic equation.

[2] = target: IDH1-R132H recombinant protein (Homo sapiens, UniProt O75874, R132H); assay: IDH1-R132H enzymatic assay (NADPH consumption, diaphorase/resazurin readout); type: biochemical; details: read-out: Enzyme IDH1 R132H IC50 Range
Chain of IDH1-R132H recombinant protein (O75874 whole entry R132H): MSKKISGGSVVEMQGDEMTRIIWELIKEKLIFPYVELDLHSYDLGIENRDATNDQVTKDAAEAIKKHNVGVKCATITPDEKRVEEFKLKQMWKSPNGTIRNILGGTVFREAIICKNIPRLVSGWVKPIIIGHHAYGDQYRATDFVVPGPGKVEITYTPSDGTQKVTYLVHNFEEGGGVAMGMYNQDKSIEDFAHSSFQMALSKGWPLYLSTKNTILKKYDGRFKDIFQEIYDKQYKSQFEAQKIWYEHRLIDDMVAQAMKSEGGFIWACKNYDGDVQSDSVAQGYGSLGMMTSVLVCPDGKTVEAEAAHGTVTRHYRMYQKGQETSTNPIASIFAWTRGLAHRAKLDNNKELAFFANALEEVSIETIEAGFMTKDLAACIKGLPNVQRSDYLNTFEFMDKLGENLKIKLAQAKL
Experimental: as §1

Chain of IDH1-R132C recombinant protein (O75874 whole entry R132C): as the sequence (O75874 whole entry R132H) above, with H132C counted along it

IC50 [1]	IC50 [2]	SMILES
> 1 µM	0.1 to 1 µM	COc1cc(NCc2cc3cc(Cl)cc(OCCN4CCCC4)c3[nH]c2=O)ccc1C#N [Compound I-100, 4-[({6-chloro-2-oxo-8-[2-(pyrrolidin-1-yl)ethoxy]-1,2-dihydroquinolin-3-yl}methyl)amino]-2-methoxybenzonitrile]
> 1 µM	0.01 to 0.1 µM	COc1cc(NCc2cc3cc(Cl)c(OCc4ccccc4)cc3[nH]c2=O)ccc1C#N [Compound I-71, 4-({[7-(benzyloxy)-6-chloro-2-oxo-1,2-dihydroquinolin-3-yl]methyl}amino)-2-methoxybenzonitrile]
> 1 µM	0.01 to 0.1 µM	COc1cc(NCc2cc3cc(Cl)c(OCCCN4CCCC4)cc3[nH]c2=O)ccc1C#N [Compound I-83, 4-[({6-chloro-2-oxo-7-[3-(pyrrolidin-1-yl)propoxy]-1,2-dihydroquinolin-3-yl}methyl)amino]-2-methoxybenzonitrile]
0.1 to 1 µM	0.01 to 0.1 µM	COc1cc(NCc2cc3cc(Cl)c(OCc4nccn4C)cc3[nH]c2=O)ccc1C#N [Compound I-78, 4-[({6-chloro-7-[(1-methyl-1H-imidazol-2-yl)methoxy]-2-oxo-1,2-dihydroquinolin-3-yl}methyl)amino]-2-methoxybenzonitrile]
0.1 to 1 µM	0.01 to 0.1 µM	COc1cc(NCc2cc3cc(Cl)c(OCc4cncn4C)cc3[nH]c2=O)ccc1C#N [Compound I-77, 4-[({6-chloro-7-[(1-methyl-1H-imidazol-5-yl)methoxy]-2-oxo-1,2-dihydroquinolin-3-yl}methyl)amino]-2-methoxybenzonitrile]
> 1 µM	0.01 to 0.1 µM	COc1cc(NCc2cc3cc(Cl)c(OC[C@@H]4CCCN4C)cc3[nH]c2=O)ccc1C#N [Compound I-94, 4-{[(6-chloro-7-{[(2S)-1-methylpyrrolidin-2-yl]methoxy}-2-oxo-1,2-dihydroquinolin-3-yl)methyl]amino}-2-methoxybenzonitrile]

The next lines start with the compound.

SMILES	IC50 [1]	IC50 [2]
COc1cc(NCc2cc3cc(Cl)c(OCc4ccccn4)cc3[nH]c2=O)ccc1C#N [Compound I-58, 4-({[6-chloro-2-oxo-7-(pyridin-2-ylmethoxy)-1,2-dihydroquinolin-3-yl]methyl}amino)-2-methoxybenzonitrile]	0.1 to 1 µM	0.01 to 0.1 µM
COc1cc(NCc2cc3cc(Cl)c(OC[C@H]4CCOC4)cc3[nH]c2=O)ccc1C#N [Compound I-65, 4-[({6-chloro-2-oxo-7-[(3S)-oxolan-3-ylmethoxy]-1,2-dihydroquinolin-3-yl}methyl)amino]-2-methoxybenzonitrile]	> 1 µM	0.01 to 0.1 µM
COc1cc(NCc2cc3ccccc3[nH]c2=O)ccc1C#N [Compound I-47, 2-methoxy-4-{[(2-oxo-1,2-dihydroquinolin-3-yl)methyl]amino}benzonitrile]	> 1 µM	0.1 to 1 µM
COc1cc(NCc2cc3ccc(O)cc3[nH]c2=O)ccc1C#N [Compound I-30, 4-{[(7-hydroxy-2-oxo-1,2-dihydroquinolin-3-yl)methyl]amino}-2-methoxybenzonitrile]	> 1 µM	0.1 to 1 µM
COc1cc(NCc2cc3cc(Cl)c(OCC(N)=O)cc3[nH]c2=O)ccc1C#N [Compound I-68, 2-[(6-chloro-3-{[(4-cyano-3-methoxyphenyl)amino]methyl}-2-oxo-1,2-dihydroquinolin-7-yl)oxy]acetamide]	0.1 to 1 µM	0.01 to 0.1 µM
COc1cc(NCc2cc3cc(Cl)c(OCC(=O)N(C)C)cc3[nH]c2=O)ccc1C#N [Compound I-67, 2-[(6-chloro-3-{[(4-cyano-3-methoxyphenyl)amino]methyl}-2-oxo-1,2-dihydroquinolin-7-yl)oxy]-N,N-dimethylacetamide]	> 1 µM	0.01 to 0.1 µM
COc1cc(NCc2cc3cc(Cl)ccc3[nH]c2=O)cc(OC)c1C#N [Compound I-9, 4-{[(6-chloro-2-oxo-1,2-dihydroquinolin-3-yl)methyl]amino}-2,6-dimethoxybenzonitrile]	> 1 µM	0.1 to 1 µM
